Patent US9895338B1, “Cobalt-polypyridyl complex for treatment of cancer, a pharmaceutical composition and a kit comprising it” (Macau University of Science and Technology, priority 2016, dated 2018)

How the values were obtained:
A549 (lung cancer) = test: MTT cytotoxicity assay, A549; type: cell-based; details: 72 h
Protocol: (§1) All prepared cobalt-polypyridyl complexes were dissolved in DMSO at a final concentration of 50 mmol/L and stored at −20° C. before use. Cytotoxicity was assessed by using the 3-(4,5-dimethylthiazol-2-yl)-2,5-diphenyltetrazolium bromide (MTT) (5.0 mg/ml) assay as previously described (Wong, V. K. et al., Cell Death Dis, 2013, 4, e720). Briefly, 4×10^3 cells per well were seeded in 96-well plates before drug treatments. After overnight culture, the cells were then exposed to different concentrations of selected compounds (0.039-100 μmol/L) for 72 h. Cells without drug treatment were used as control. Subsequently, MTT (10 μL) solution was added to each well and incubated at 37° C. for 4 h followed by the addition of 100 μL solubilization buffer (10% SDS in 0.01 mol/L HCl) and overnight incubation. A570 nm was then determined in each well on the next day. The percentage of cell viability was calculated using the following formula: Cell viability (%)=Atreated/Acontrol×100. Data were obtained from three independent experiments. Cells include HeLa cells (cervical cancer), MCF-7 (breast cancer), H1299, H1975, A549 and LLC-1 (lung cancer), HepG2 and Hep3B (liver cancer) and LO2 (normal human hepatocytes).

[1] = tested on: cisplatin-resistant A2780 ovarian cancer cells; test: MTT cytotoxicity, cisplatin-resistant A2780; type: cell-based
Protocol: as §1, with “experiments.” for “experiments. Cells include HeLa cells (cervical cancer), MCF-7 (breast cancer), H1299, H1975, A549 and LLC-1 (lung cancer), HepG2 and Hep3B (liver cancer) and LO2 (normal human hepatocytes).”
Cisplatin-sensitive or -resistant A2780, OV2008 and C13 cancer cells were provided by Prof. Benjamin Tsang (Department of Obstetrics and Gynecology and Department of Cellular and Molecular Medicine, University of Ottawa, Canada). HCT116 p53^+/+ and p53^−/− isogenic human colon cancer cells were provided by Professor Bert Vogelstein (Ludwig Center at Johns Hopkins, Howard Hughes Medical Institute, USA). All media were supplemented with 10% fetal bovine serum and the antibiotics penicillin (50 U/ml) and streptomycin (50 μg/ml; Invitrogen, Paisley, Scotland, UK). All cell cultures were incubated at 37° C. in a 5% humidified CO2 incubator.

In the case of `Cc1ccnc(-c2cc(C)ccn2)c1.Cc1ccnc(-c2cc(C)ccn2)c1.Cc1ccnc(-c2cc(C)ccn2)c1.F[P-](F)(F)(F)(F)F.F[P-](F)(F)(F)(F)F.F[P-](F)(F)(F)(F)F.[Co+3]` [complex (IV), [Co^III(4,4′-Me2-Bpy)3.](PF6)3], the IC50 (A549 (lung cancer)) is reported as 7.86 µM, the IC50 ([1]; A2780, MTT, 72 h) is reported as 10.7 µM and the “Resistant Factor” value ([1]; A2780, cisplatin-resistant over cisplatin-sensitive) is reported as 0.87.
